Data taken from patent US10870638B2, “Pyridazinone compound or its salt, and herbicide containing it” (ISHIHARA SANGYO KAISHA, LTD., priority 2016, dated 2020).

Assays:
Assay type in all cases: in vivo
Details in all cases: active ingredient amount 31 g/ha, 14th day after application
[1] = system: barnyardgrass (Echinochloa crus-qalli L.); assay: Test Example 1: foliar treatment, growth inhibition rate on 14th day
Summary of the method: (§1)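 Using a small sprayer, formulated compound in water (0.1 vol % surfactant, 1,000 L/ha) was applied to seedlings grown from seed in upland soil. Fourteen days on, growth state was observed and expressed as percent inhibition from 0 to 100.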

corn (Zea mays L.) [2] = assay: as above
Summary of the method: as §1

[3] = system: crabgrass (Digitaria sanquinalis L.); assay: as above
Summary of the method: as §1

[4] = system: green foxtail (Setaria viridis L.); assay: as above
Summary of the method: (§2)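 Growth inhibition rates (%) come from visual observation on the 14th day following a single foliar application. Soybean was sprayed at the primary leaf stage, rice at 0.2–2.7 leaves, wild oat at 0.4–1.2, green foxtail at 0.5–3.2.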

[5] = system: italian ryegrass (Lolium multiflorum Lam.); assay: as above
Summary of the method: as §1

[6] = system: redroot pigweed (Amaranthus retroflexus L.); assay: as above
Summary of the method: as §1

rice (Oryza sativa L.) [7] = assay: as above
Summary of the method: as §2

[8] = system: soybean (Glycine max Merr.); assay: as above
Summary of the method: as §2

[9] = system: wheat (Triticum aestivum L.); assay: as above
Summary of the method: as §1

[10] = system: wild oat (Avena fatua L.); assay: as above
Summary of the method: as §2

[11] = system: barnyardgrass (Echinochloa crus-qalli L.); assay: Test Example 2: soil application on the day after sowing, growth inhibition rate on 14th day
Summary of the method: (§3)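 Pre-emergence soil spray, day after sowing; WP or EC formulations diluted to 1,000 L/ha water at set a.i. rates. Visual growth inhibition %, 0 = untreated, 100 = complete kill, read at day 14.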

corn (Zea mays L.) [12] = assay: as above
Summary of the method: as §3

[13] = system: crabgrass (Digitaris sanquinalis L.); assay: as above
Summary of the method: as §3

[14] = system: green foxtail (Setaria viridis L.); assay: as above
Summary of the method: as §3

[15] = system: prickly sida (Sida spinosa L.); assay: as above
Summary of the method: as §3

[16] = system: redroot pigweed (Amaranthus retroflexus L.); assay: as above
Summary of the method: as §3

rice (Oryza sativa L.) [17] = assay: as above
Summary of the method: as §3

[18] = system: soybean (Glycine max Merr.); assay: as above
Summary of the method: as §3

[19] = system: velvetleaf (Abutilon theophrasti MEDIC.); assay: as above
Summary of the method: as §3

[20] = system: wheat (Triticum aestivum L.); assay: as above
Summary of the method: as §3

| Compound | Growth inhibition rate (%) Barnyardgrass [1] | Growth inhibition rate (%) Corn (corn (Zea mays L.) [2]) | Growth inhibition rate (%) Crabgrass [3] | Growth inhibition rate (%) Green foxtail [4] | Growth inhibition rate (%) Italian ryegrass [5] | Growth inhibition rate (%) Redroot pigweed [6] | Growth inhibition rate (%) Rice (rice (Oryza sativa L.) [7]) | Growth inhibition rate (%) Soybean [8] | Growth inhibition rate (%) Wheat [9] | Growth inhibition rate (%) Wild oat [10] | Growth inhibition rate (%) Barnyardgrass [11] | Growth inhibition rate (%) Corn (corn (Zea mays L.) [12]) | Growth inhibition rate (%) Crabgrass [13] | Growth inhibition rate (%) Green foxtail [14] | Growth inhibition rate (%) Prickly sida [15] | Growth inhibition rate (%) Redroot pigweed [16] | Growth inhibition rate (%) Rice (rice (Oryza sativa L.) [17]) | Growth inhibition rate (%) Soybean [18] | Growth inhibition rate (%) Velvetleaf [19] | Growth inhibition rate (%) Wheat [20] |
| --- | --- | --- | --- | --- | --- | --- | --- | --- | --- | --- | --- | --- | --- | --- | --- | --- | --- | --- | --- | --- |
| Cc1ccc(Oc2nc3ccc(Br)cc3s2)cc1-c1c(O)c(C)nn(C)c1=O [Compound 2-156] | 98% | 0% | 93% | 98% | 30% | 0% | 0% | 0% | 0% | 10% | 83% | 0% | 75% | 98% | 0% | 0% | 15% | 0% | 0% | 0% |
| CC(=O)Oc1c(C)nn(C)c(=O)c1-c1cc(Oc2nc3ccc(Br)cc3s2)ccc1C [Compound 2-158] | 100% | 0% | 93% | 98% | 65% | 0% | 60% | 0% | 93% | 65% | 80% | 10% | 70% | 95% | 0% | 0% | 0% | 0% | 0% | 0% |
| CCc1ccc(Oc2nc3ccc(Cl)cc3o2)cc1-c1c(OC(C)=O)c(C)nn(C)c1=O [Compound 2-159] | 100% | 100% | 100% | 100% | 100% | 0% | 100% | 35% | 99% | 100% | 100% | 0% | 98% | 99% | 0% | 0% | 0% | 0% | 0% | 0% |
| CCc1ccc(Oc2nc3ccc(Cl)cc3o2)cc1-c1c(OC(C)=O)cnn(C)c1=O [Compound 2-160] | 100% | 100% | 100% | 100% | 100% | 0% | 100% | 30% | 99% | 100% | 100% | 0% | 99% | 100% | 50% | 95% | 0% | 0% | 0% | 0% |
